Read-outs that look alike come from different tables or passages of the source.
Columns and labels:
Pseudomonas aeruginosa = assay: % Kill of Pseudomonas aeruginosa; type: cell-based; settings: read-out: Percent Kill Pseudomonas aeruginosa; for killing at 0.23 µg/mL: 0.23 ppm free bromine; for killing at 0.34 µg/mL: 0.34 ppm free bromine; for killing at 0.2 µg/mL: 0.20 ppm free bromine; for killing at 0.25 µg/mL: 0.25 ppm free bromine
Text: Quaternary ammonium polyhalides and surfactant mixtures thereof have biocidal properties in aqueous systems where oxidizing biocides are compatible; that is, in aqueous systems having a low halogen demand.
The data in Tables 3-5 indicate that the combination of a water soluble liquid quaternary ammonium polyhalide and a surfactant provides an enhanced efficacy over the liquid quaternary ammonium polyhalide alone. This may be a result of the surface active effect on exopolysaccharides and/or biological membranes.

[1] = Japanese Patent Publication No. 49/14,411; cited from earlier work
[2] = Japanese Patent Publication No. 49/14,411; cited from earlier work; remark: listed apart in the source

Question: Which killing at 0.23 µg/mL (Pseudomonas aeruginosa; 1 min, 1 min) does the source give for `CCCCCCCC[N+](C)(C)CCCCCCCC` [Compound 2, N-N-Dimethyl-N,N-dioctylammonium dibromochloride] here?
Answer: Its killing at 0.23 µg/mL is 82%.

Question: What about the killing at 0.23 µg/mL (Pseudomonas aeruginosa; 0.05 h, 3 min) of the same compound?
Answer: The killing at 0.23 µg/mL was 100%.

Question: And the killing at 0.23 µg/mL (Pseudomonas aeruginosa; 5 min, 5 min)?
Answer: The killing at 0.23 µg/mL was 100%.

Question: What about the killing at 0.23 µg/mL (Pseudomonas aeruginosa; 10 min, 10 min) of the same compound?
Answer: The killing at 0.23 µg/mL was 100%.

Question: Which killing at 0.34 µg/mL (Pseudomonas aeruginosa; 1 min, 1 min) does the source give for `COCCOCC[N+](C)(CCOCCOC)CCOCCOC` [Compound 3, N-Methyl-N,N,N-tris(3,6-dioxaheptyl)ammonium diobromoiodide] here?
Answer: The killing at 0.34 µg/mL was 98.6%.

Question: What about the killing at 0.34 µg/mL (Pseudomonas aeruginosa; 0.05 h, 3 min) of the same compound?
Answer: The killing at 0.34 µg/mL was 100%.

Question: And the killing at 0.34 µg/mL (Pseudomonas aeruginosa; 5 min, 5 min)?
Answer: Its killing at 0.34 µg/mL is 100%.

Question: And the killing at 0.34 µg/mL (Pseudomonas aeruginosa; 10 min, 10 min)?
Answer: The killing at 0.34 µg/mL was 100%.

Question: For `CCCCCCCCN(C)C` [Compound 4, N,N-Dimethyl-N-octylamine hydrotribromide], which killing at 0.34 µg/mL (Pseudomonas aeruginosa; 1 min, 1 min) is on record?
Answer: Its killing at 0.34 µg/mL is 99.9%.

Question: What about the killing at 0.34 µg/mL (Pseudomonas aeruginosa; 0.05 h, 3 min) of the same compound?
Answer: The killing at 0.34 µg/mL was 100%.

Question: What about the killing at 0.34 µg/mL (Pseudomonas aeruginosa; 5 min, 5 min) of the same compound?
Answer: Its killing at 0.34 µg/mL is 100%.

Question: And the killing at 0.34 µg/mL (Pseudomonas aeruginosa; 10 min, 10 min)?
Answer: The killing at 0.34 µg/mL was 100%.

Question: Which results are given for `CC[N+](C)(C)C` [Compound 5, N-Ethyl-N,N,N-trimethylammonium tribromide]?
Answer: killing at 0.34 µg/mL (Pseudomonas aeruginosa; 1 min, 1 min): 99.9%; killing at 0.34 µg/mL (Pseudomonas aeruginosa; 0.05 h, 3 min): 100%; killing at 0.34 µg/mL (Pseudomonas aeruginosa; 5 min, 5 min): 100%; killing at 0.34 µg/mL (Pseudomonas aeruginosa; 10 min, 10 min): 100%

Question: Which killing at 0.34 µg/mL (Pseudomonas aeruginosa; 1 min, 1 min) does the source give for `CCC[N+](C)(C)CC` [Compound 6, N,N-Dimethyl-N-ethyl-N-propylammonium pentabromide] here?
Answer: The killing at 0.34 µg/mL was 99.6%.

Question: And the killing at 0.34 µg/mL (Pseudomonas aeruginosa; 0.05 h, 3 min)?
Answer: The killing at 0.34 µg/mL was 100%.

Question: What about the killing at 0.34 µg/mL (Pseudomonas aeruginosa; 5 min, 5 min) of the same compound?
Answer: Its killing at 0.34 µg/mL is 100%.

Question: What about the killing at 0.34 µg/mL (Pseudomonas aeruginosa; 10 min, 10 min) of the same compound?
Answer: Its killing at 0.34 µg/mL is 100%.

Question: For `C[N+](C)(C)CCO` [Compound 7, N-(2-Hydroxyethyl)-N,N,N-trimethylammonium tribromide], which killing at 0.2 µg/mL (Pseudomonas aeruginosa; 1 min, 1 min) is on record?
Answer: Its killing at 0.2 µg/mL is 56.6%.

Question: And the killing at 0.2 µg/mL (Pseudomonas aeruginosa; 0.05 h, 3 min)?
Answer: The killing at 0.2 µg/mL was 99.6%.

Question: What about the killing at 0.2 µg/mL (Pseudomonas aeruginosa; 5 min, 5 min) of the same compound?
Answer: Its killing at 0.2 µg/mL is 100%.

Question: What about the killing at 0.2 µg/mL (Pseudomonas aeruginosa; 10 min, 10 min) of the same compound?
Answer: The killing at 0.2 µg/mL was 100%.

Question: Which killing at 0.23 µg/mL (Pseudomonas aeruginosa; 1 min, 1 min) does the source give for `COCCOCCN(CCOCCOC)CCOCCOC` [Compound 8, N,N,.N-tris(3,6-Dioxaheptyl)amine hydrotribromide] here?
Answer: The killing at 0.23 µg/mL was 99.9%.

Question: What about the killing at 0.23 µg/mL (Pseudomonas aeruginosa; 0.05 h, 3 min) of the same compound?
Answer: The killing at 0.23 µg/mL was 100%.

Question: And the killing at 0.23 µg/mL (Pseudomonas aeruginosa; 5 min, 5 min)?
Answer: Its killing at 0.23 µg/mL is 100%.

Question: What about the killing at 0.23 µg/mL (Pseudomonas aeruginosa; 10 min, 10 min) of the same compound?
Answer: The killing at 0.23 µg/mL was 100%.

Question: With `CCC[N+](CCOCCOC)(CCOCCOC)CCOCCOC` [Compound 9, N-Propyl-N,N,N-tris(3,6-dioxaheptyl)-ammonium tribromide] as the compound, how does the killing at 0.23 µg/mL (Pseudomonas aeruginosa; 1 min, 1 min) read?
Answer: Its killing at 0.23 µg/mL is 21.5%.

Question: And the killing at 0.23 µg/mL (Pseudomonas aeruginosa; 0.05 h, 3 min)?
Answer: Its killing at 0.23 µg/mL is 82%.

Question: And the killing at 0.23 µg/mL (Pseudomonas aeruginosa; 5 min, 5 min)?
Answer: The killing at 0.23 µg/mL was 100%.

Question: And the killing at 0.23 µg/mL (Pseudomonas aeruginosa; 10 min, 10 min)?
Answer: The killing at 0.23 µg/mL was 100%.

Question: What does the source list for `CCCCCCCCCCCCCC[N+](C)(C)Cc1ccccc1` [Compound 11, N-Benzyl-N,N-dimethyl-N-myristyl-ammonium dibromochloride]?
Answer: killing at 0.34 µg/mL (Pseudomonas aeruginosa; 1 min, 1 min): 100%; killing at 0.34 µg/mL (Pseudomonas aeruginosa; 0.05 h, 3 min): 100%; killing at 0.34 µg/mL (Pseudomonas aeruginosa; 5 min, 5 min): 100%; killing at 0.34 µg/mL (Pseudomonas aeruginosa; 10 min, 10 min): 100%

Question: With `CCOCC[N+](C)(C)C` [Compound 12, N-Ethoxyethyl-N,N,N-trimethylammonium tribromide] as the compound, how does the killing at 0.34 µg/mL (Pseudomonas aeruginosa; 1 min, 1 min) read?
Answer: Its killing at 0.34 µg/mL is 100%.

Question: What about the killing at 0.34 µg/mL (Pseudomonas aeruginosa; 0.05 h, 3 min) of the same compound?
Answer: The killing at 0.34 µg/mL was 100%.

Question: What about the killing at 0.34 µg/mL (Pseudomonas aeruginosa; 5 min, 5 min) of the same compound?
Answer: Its killing at 0.34 µg/mL is 99.9%.

Question: And the killing at 0.34 µg/mL (Pseudomonas aeruginosa; 10 min, 10 min)?
Answer: Its killing at 0.34 µg/mL is 100%.

Question: For `CCC[N+](C)(C)CC` [Compound 13, N,N-Dimethyl-N-ethyl-N-propylammonium dichlorobromide], which killing at 0.25 µg/mL (Pseudomonas aeruginosa; 1 min, 1 min) is on record?
Answer: The killing at 0.25 µg/mL was 100%.

Question: And the killing at 0.25 µg/mL (Pseudomonas aeruginosa; 0.05 h, 3 min)?
Answer: Its killing at 0.25 µg/mL is 100%.

Question: And the killing at 0.25 µg/mL (Pseudomonas aeruginosa; 5 min, 5 min)?
Answer: The killing at 0.25 µg/mL was 100%.

Question: And the killing at 0.25 µg/mL (Pseudomonas aeruginosa; 10 min, 10 min)?
Answer: The killing at 0.25 µg/mL was 100%.

Question: Which results are given for `CC[N+](C)(C)C` [Compound 14, N-Ethyl-N,N,N-tri-methylammonium dichlorobromide]?
Answer: killing at 0.2 µg/mL (Pseudomonas aeruginosa; 1 min, 1 min): 100%; killing at 0.2 µg/mL (Pseudomonas aeruginosa; 0.05 h, 3 min): 100%; killing at 0.2 µg/mL (Pseudomonas aeruginosa; 5 min, 5 min): 100%; killing at 0.2 µg/mL (Pseudomonas aeruginosa; 10 min, 10 min): 100%

Question: Which results are given for `CCCCCCCCCC[N+](C)(C)CCCCCCCCCC` [Compound 15, N,N-Didecyl-N,N-dimethyl-ammonium dibromochloride]?
Answer: killing at 0.3 µg/mL (Pseudomonas aeruginosa; 1 min): 100%; killing at 0.3 µg/mL (Pseudomonas aeruginosa; 0.05 h): 100%; killing at 0.3 µg/mL (Pseudomonas aeruginosa; 5 min): 100%; killing at 0.3 µg/mL (Pseudomonas aeruginosa; 10 min): 100%

Question: With `CCCCCCCCCCCCCCCC[n+]1ccccc1` [cetylpyridinium tribromide] as the compound, how does the water solubility [1] read?
Answer: Its water solubility is “water insoluble”.

Question: And the biocidal properties [2]?
Answer: Its biocidal properties is “having biocidal properties”.

Question: For `CCCCCCCCCCCCCCCC[N+](C)(C)C.[Br-]` [cetyltrimethylammonium bromide], which biocidal properties [2] is on record?
Answer: Its biocidal properties is “having biocidal properties”.

Question: Which water solubility [1] does the source give for `CCCCCCCCCCCCCCCC[N+](C)(C)C` [cetyltrimethylammonium tribromide] here?
Answer: Its water solubility is “water insoluble”.

Question: What about the biocidal properties [2] of the same compound?
Answer: The biocidal properties was “having biocidal properties”.

From patent publication US4976874A, “Control of biofouling in aqueous systems by non-polymeric quaternary ammonium polyhalides” (Great Lakes Chemical Corporation, priority 1989, dated 1990)
